According to patent US20180333389A1, “VITAMIN E COMPOSITIONS AND METHODS OF USE THEREFOR” (BIOELECTRON TECHNOLOGY CORPORATION, priority 2017, published 2018):
Like-named read-outs stand apart in the source and are kept apart here. Values belong to the compound of their own block, whether it stands above or below them.

How the values were obtained:
[1] = target: SQR (sulfide:quinone oxidoreductase) (Homo sapiens, UniProt Q9Y6N5); test: SQR activity of alpha-tocopherol quinones (rate of quinone reduction, absorbance at 266 nm); assay type: biochemical; details: for rate of quinone reduction by SQR: 100 μM quinone, 25 nM SQR, 25° C., pH 7.5
Description: SQR activity in the presence of varying concentrations of the isomers of quinone derivatives of Vitamin E was evaluated by monitoring the rate of quinone reduction using the absorbance of the quinone at 266 nm. Assays were conducted at 25° C. and pH 7.5 in a volume of 100 μL in the following buffer system: 100 mM Tris, 0.5 mM EDTA, 1.0% (w/v) Triton X-100 reduced. Sulfide (as Na2S nonahydrate) as reducing substrate and sulfite (as Na2SO3) as sulfur acceptor substrate were held constant at saturating concentrations of 200 μM and 2 mM, respectively. Quinone substrates were added to final concentrations between 0-200 μM from DMSO stock solutions resulting in 2% final concentration of DMSO (enzymatic rates were independent of DMSO concentration in this range). SQR was added at 25 nM.

[2] = test system: Q7 cells (ST HDH Q7/7; immortalized mouse striatal cells); test: Q7 striatal cell survival assay upon cystine deprivation; assay type: cell-based; details: for EC50: Q7 cell survival after 18 h in cystine-free medium, Cell Titer Glo, read-out: EC50 (nM) geometric mean (n ≥ 3 independent experiments); for potency in rescuing Q7 cells from oxidative stress relative to the RRR isomer: compared with RRR-alpha-tocopherol
Description: In neuronal cells excess extracellular glutamate inhibits the cystine/glutamate antiporter leading to intracellular cysteine depletion, GSH depletion, ROS production and cell death, a phenomenon termed oxidative glutamate toxicity or oxytosis. Q7 cells (ST HDH Q7/7; immortalized mouse striatal cells) challenged with cystine-free media recapitulate this phenotype. An initial screen was performed to identify compounds effective in rescuing Q7 cells from death resulting from cystine deprivation. This method is further described in Yonezawa et al., J. Neurochem 67, 566-573 (1996), and Li et al., J Neurosci., 23, 5816-5826 (2003).
DMEM (Catalog no. 11995-040), DMEM without Cystine (Catalog no. 21013-024), PBS (Phosphate buffered saline), Penicillin-streptomycin mix, L-Glutamine and Pyruvate were purchased from Gibco. Fetal Bovine Serum was obtained from Mediatech, Inc. Mouse striatum derived ST HDH Q7/7 (Q7) cells were obtained from Dr. M. MacDonald (Massachusetts General Hospital). Methionine and Vitamin K2 were purchased from Sigma Aldrich. Cell Titer Glo 2.0 was purchased from Promega. Geneticin (G418) Sulfate was purchased from Santa Cruz Biotechnology. Cell culture medium (Growth medium) was made by combining 50 mL Fetal Bovine Serum, 100 U/mL penicillin, 100 microgram/mL streptomycin and 400 microgram/mL Geneticin (G418) Sulfate; DMEM was added to make the volume up to 500 mL. Assay medium (without Cystine) was made by combining 50 mL Fetal Bovine Serum, 100 U/mL penicillin, 100 microgram/mL streptomycin, 4 mM L-Glutamine, 1 mM Pyruvate and 30 mg/L Methionine; DMEM without Cystine was added to make the volume up to 500 mL. During the course of the experiments, these solutions were stored at 4° C. The cells were grown in 10-cm diameter tissue culture-treated dishes. Every fourth day, the cells were subcultured by trypsinization and re-seeding at a cell density of 500,000 cells per dish.
Test samples were supplied in 1.5 mL glass vials. The compounds were diluted with an appropriate volume of DMSO to result in a 1 mM stock solution. Once dissolved, they were stored at −20 ° C.
Q7 cells were cultured routinely as described herein. For 384-well cell survival assays, cells were seeded in clear bottom, black wall 384-well tissue culture-treated polystyrene plates by resuspending a cell suspension at a density of 50,000 cells/mL in growth medium, then dispensing 60 microliters of cell suspension per well using either an electronic multichannel pipette or a Multidrop™ Combi Reagent Dispenser (ThermoFisher Scientific), corresponding to 3,000 cells/well. The cell-containing plates were incubated 5 hours at 33° C. in an atmosphere with 95% humidity and 5% CO2 to allow attachment of the cells to the culture plate. 5 hours after cell seeding into the 384-well assay plate, the cell culture medium was replaced by washing 2 times with 70 microliters/well PBS (without Ca^++ and Mg^++) using a BioTek ELx405 plate washer. After the final aspiration, 60 microliters/well of assay medium (without cystine) was added using the Multidrop™ Combi Reagent Dispenser. […]
After medium change to cystine-free medium and compound addition, cell plates were incubated at 33° C. in an atmosphere of 5% CO2 and 95% humidity. […] After 15 minutes of incubation at room temperature, the luminescence (100 ms integration time) per well was determined using the BioTek Synergy plate reader. […]

[3] = test system: HepG2 cells; test: Conversion of alpha-tocopherol to the corresponding quinone in HepG2 cells; assay type: in vitro ADME; details: dosed at 1 μM, 3 μM and 10 μM, all three concentrations
Description: (§1) DMEM (Catalog no. 11995-040), Penicillin-streptomycin mix, Geneticin (G418) Sulfate were purchased from Thermo Fisher Scientific. Fetal Bovine Serum was obtained from Sigma Aldrich. Mouse striatum-derived ST HDH Q7/7 (Q7) cells were obtained from Dr. M. MacDonald (Massachusetts General Hospital). HepG2 cells were obtained from ATCC. Normal human fibroblast cells (NHF) were obtained from Coriell. Cell culture medium for Q7 cell was prepared by combining 50 mL Fetal Bovine Serum, 100 U/mL penicillin, 100 microgram/mL streptomycin, and 400 microgram/mL Geneticin (G418) Sulfate; DMEM was added to bring the final volume to 500 mL. For HepG2 cells and NHF, cell culture medium was made by combining 50 mL Fetal Bovine Serum, 100 U/mL penicillin, and 100 microgram/mL streptomycin; DMEM was added to bring the final volume to 500 mL. During the course of the experiments, these solutions were stored at 4° C. […]
(§2) Quantification of compounds was determined by mass spectrometry.
(§3) The rate of conversion of R,R,R-alpha-tocopherol (black bars) and a 1:1:1:1:1:1:1:1 equimolar mixture of all 8 stereoisomers of alpha-tocopherol (grey bars) to their corresponding quinones was measured in HepG2 cells and is shown in FIG. 2. The percent of total cellular compound in the quinone form was measured at three different dosed concentrations: 1 μM, 3 μM, and 10 μM. […]

[4] = test system: Normal human fibroblast cells (NHF); test: Conversion of alpha-tocopherol to the corresponding quinone in NHF cells; assay type: in vitro ADME
Description: DMEM (Catalog no. 11995-040), Penicillin-streptomycin mix, Geneticin (G418) Sulfate were purchased from Thermo Fisher Scientific. Fetal Bovine Serum was obtained from Sigma Aldrich. Mouse striatum-derived ST HDH Q7/7 (Q7) cells were obtained from Dr. M. MacDonald (Massachusetts General Hospital). HepG2 cells were obtained from ATCC. Normal human fibroblast cells (NHF) were obtained from Coriell. Cell culture medium for Q7 cell was prepared by combining 50 mL Fetal Bovine Serum, 100 U/mL penicillin, 100 microgram/mL streptomycin, and 400 microgram/mL Geneticin (G418) Sulfate; DMEM was added to bring the final volume to 500 mL. For HepG2 cells and NHF, cell culture medium was made by combining 50 mL Fetal Bovine Serum, 100 U/mL penicillin, and 100 microgram/mL streptomycin; DMEM was added to bring the final volume to 500 mL. During the course of the experiments, these solutions were stored at 4° C. The cells were grown in 150-cm^2 tissue culture-treated flasks until they reached 90% confluency.
Test samples were supplied in 1.5 mL glass vials. The compounds were diluted with an appropriate volume of DMSO to result in a 10 mM stock solution. Once dissolved, they were stored at −20 ° C.
Test samples were applied according to the following protocol:
Q7, HepG2, and NHF Cells were seeded separately in clear bottom, 96-well tissue culture-treated polystyrene plates by resuspending each cell suspension at a density of 200,000 cells/mL in cell culture medium, then dispensing 50 microliters of cell suspension per well using an electronic multichannel pipette, corresponding to 10,000 cells/well. […]
as §2
as §3, with “NHF” for “HepG2”, “3.” for “2.”, “two” for “three”, “concentrations:” for “concentrations: 1 μM,”, “μM” for “μM,”

[5] = test system: Mouse striatum-derived ST HDH Q7/7 (Q7) cells; test: Conversion of alpha-tocopherol to the corresponding quinone in Q7 cells; assay type: in vitro ADME; details: dosed at 1 μM, 3 μM and 10 μM, all three concentrations
Description: as §1, §2
as §3, with “Q7” for “HepG2”, “4.” for “2.”

Chain of SQR (sulfide:quinone oxidoreductase) (Q9Y6N5 whole entry): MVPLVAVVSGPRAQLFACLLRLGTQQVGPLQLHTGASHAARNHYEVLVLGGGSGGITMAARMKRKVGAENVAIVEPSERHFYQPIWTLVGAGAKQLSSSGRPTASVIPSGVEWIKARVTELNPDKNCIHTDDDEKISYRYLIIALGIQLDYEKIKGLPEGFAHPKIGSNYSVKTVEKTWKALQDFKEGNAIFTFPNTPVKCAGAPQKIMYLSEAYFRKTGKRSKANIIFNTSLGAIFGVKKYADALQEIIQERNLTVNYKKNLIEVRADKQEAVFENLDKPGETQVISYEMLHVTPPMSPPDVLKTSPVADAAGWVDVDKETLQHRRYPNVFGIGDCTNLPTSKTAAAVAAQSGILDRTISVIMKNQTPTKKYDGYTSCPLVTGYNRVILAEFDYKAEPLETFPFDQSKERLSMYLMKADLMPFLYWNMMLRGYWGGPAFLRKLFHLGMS

Compound: CC1=C(C)C(=O)C(CC[C@](C)(O)CCC[C@H](C)CCC[C@H](C)CCCC(C)C)=C(C)C1=O [S,R,R-alpha-tocopherol quinone, reference compound]
rate of quinone reduction by SQR [1]: about 50 nM/s
effect on the activity of the R,R,R isomer (SQR activity) ([1]; 1:1 mixture versus pure R,R,R isomer): inhibitory effect

Compound: CC1=C(C)C(=O)C(CC[C@](C)(O)CCC[C@H](C)CCC[C@H](C)CCCC(C)C)=C(C)C1=O [R,R,R-alpha-tocopherol quinone, (R,R,R)-alpha-tocopherol quinone]
reduction rate relative to the corresponding S,R,R stereoisomer ([1]; 100 μM each): more than twice
rate of quinone reduction by SQR [1]: around 125 nM/s
rate of SQR reduction as a function of concentration ([1]; in the absence of the S,R,R isomer): increases with increasing R,R,R-alpha-tocopherol quinone concentration
rate of SQR reduction, upper limit with increasing concentration of the R,R,R isomer ([1]; in the presence of S,R,R-alpha-tocopherol quinone): ≤ 100 nM/s

Compound: Cc1c(C)c2c(c(C)c1O)CCC(C)(CCCC(C)CCCC(C)CCCC(C)C)O2 (single isomer, unassigned) [Equal mixture of all 8 stereoisomers of alpha-tocopherol, all-rac alpha-tocopherol]
EC50 [2]: 313 nM
potency in rescuing Q7 cells from oxidative stress relative to the RRR isomer [2]: approximately half as potent as the RRR isomer

percent of compound converted to the quinone form, compared with mixture of all 8 stereoisomers [3]: higher
percent of compound converted, times higher than the mixture of all 8 stereoisomers ([4]; 3 μM): approximately 3 times
percent of compound converted, times higher than the mixture of all 8 stereoisomers ([4]; 10 μM): approximately 2 times
percent of compound converted to the quinone form, compared with mixture of all 8 stereoisomers ([4]; dosed at 3 μM and 10 μM, both concentrations): higher
percent of compound converted to the quinone form, compared with mixture of all 8 stereoisomers [5]: higher
Compound: Cc1c(C)c2c(c(C)c1O)CC[C@@](C)(CCC[C@H](C)CCC[C@H](C)CCCC(C)C)O2 [RRR-alpha-tocopherol, (R,R,R)-alpha-tocopherol]
EC50 ([2]; Mus musculus): 175 nM

Compound: Cc1c(C)c2c(c(C)c1O)CC[C@](C)(CCC[C@H](C)CCC[C@H](C)CCCC(C)C)O2 [SRR-alpha-tocopherol]
EC50 ([2]; Mus musculus): 372 nM
potency in rescuing Q7 cells from oxidative stress relative to the RRR isomer [2]: approximately half as potent as the RRR isomer
